Legend:
[1] = test system: infection of K562 cells with dengue virus; assay: Virus infection test of K562 cells with oligosaccharide-pretreated dengue virus, antigen positive cells by flow cytometer; type: cell-based; conditions: virus pretreated with oligosaccharide at 28° C. for 30 minutes, infection at 37° C. for 2 hours
Experimental: In any cases, 1 mM stock solution was prepared with sterile PBS(−). This solution was appropriately diluted and used for the infection inhibition test.
Dilution was carried out with serum-free RPMI medium (SF-RPMI) containing 0.2% BSA so as to give a final virus concentration of 3×105 FFU (focus forming unit)/sample, and the solution was stirred well and placed on ice.
To 630 μl (virus volume per 1 sample) of the dengue virus solution prepared in (2) described above, an equivalent amount of a diluted solution containing an oligosaccharide was added, stirred well, and incubated at 28° C. for 30 minutes. This solution was used as a pretreated virus solution.
In addition, as a negative control, the one obtained by mixing PBS(−) with the virus solution was used.
After K562 cells were washed once with SF-RPMI, the cells were prepared at 1×10^6 cells/ml with 0.1% BSA-SF-RPMI. This cell suspension was dispensed in 100 μl aliquots into tubes. Thereto was added the pretreated virus solution, stirred gently, and infection of cells was carried out at 37° C. for 2 hours. During this time, the solution in the tube was gently stirred every 20 minutes. After the solution was centrifuged at 3,400 rpm for 3 minutes, the virus solution was removed, and the cells were washed 3 times with 0.1% BSA-SF-RPMI. To the cell pellet, 2 ml of RPMI medium containing 2% serum (2% FCS-RPMI) was added, and suspended. […]

dengue virus infection = conditions: rhesus monkeys; cited from earlier work
[2] = test system: binding of dengue virus to K562 cells; assay: Inhibition of binding of dengue virus to K562 cell surface, flow cytometer (Example 2); type: cell-based
Experimental: After K562 cells were cultured until confluent, the cells were dispensed into a microtube to be 2×10^5 cells/0.1 ml. After this microtube was centrifuged at 4° C. for 2 minutes at 10,000 rpm, the obtained cell pellet was washed once with 1 ml of PBS containing 0.1% BSA. After a dengue virus solution (2,000 units/ml) and PG (0, 100, 200 or 500 μM) or GA1 (500 μM), which is a reference glycolipid, were preincubated in PBS containing 0.1% BSA at 4° C. for 1 hour, 100 μl of each of the solutions was added to K562 cells, and the virus was allowed to bind to the cell at 4° C. for 1 hour. Incidentally, as virus(−), only PBS containing 0.1% BSA was added in the same amount. After the reaction, the cells were washed 3 times with 1 ml of chilled PBS(−), 100 μl of a solution of human anti-flavivirus antiserum (lot No. 1), which had been diluted to 200-fold, was added, respectively, as a primary antibody, well suspended, and reacted at 4° C. for 30 minutes. The cells were washed 3 times with 1 ml of chilled PBS(−), and 100 μl of a solution of a FITC-labeled goat anti-human IgG (Zymed), which had been diluted to 50-fold, was added, respectively, as a secondary antibody and shielded from light. Then, they were reacted at 4° C. for 30 minutes. […]

[3] = test system: binding of dengue virus to K562 cells; assay: Inhibitory activity on binding of dengue virus to K562 cell surface, flow cytometer (Example 3); type: cell-based
Experimental: After K562 cells were cultured until confluent, the cells were dispensed into a microtube to be 4×10^5 cells/0.1 ml. After this microtube was centrifuged at 4° C. for 3 minutes at 3,500 rpm, the obtained cell pellet was washed once with 1 ml of PBS containing 0.1% BSA. After it was further centrifuged at 4° C. for 3 minutes at 3,500 rpm, a dengue virus stock solution was diluted with PBS containing 0.1% BSA to the concentrations of 5,000 units/ml, 2,000 units/ml, 1,000 units/ml, and 500 units/ml, respectively. Then, 100 μl of each of the solutions was added to the K562 cells, and reacted at 4° C. for 1 hour.
Incidentally, as virus(−), a solution to which only PBS containing 0.1% BSA was added in the same amount was used.
After the reaction, the cells were washed 3 times with 1 ml of chilled PBS(−), 100 μl of a solution of human anti-flavivirus antiserum (lot No. 1), which had been diluted to 200-fold, was added, respectively, as a primary antibody, well suspended, and reacted at 4° C. for 30 minutes. […]
K562 cells (1×10^5 cells) were seeded on a 24-well culture plate, and the total volume was made up to 1 ml with RPMI medium. […] The solution was transferred to a microtube, and virus binding was evaluated by the method described in (1).

[4] = test system: dengue virus (D2Th7 strain); assay: TLC/virus-binding assay of glycolipids; conditions: HPLC fractions of the neutral glycolipid fraction of mosquito-derived C6/36 cells
Experimental: The neutral glycolipid fractions I to IV obtained in the foregoing (c) (10 μl each), and as a reference standard, LacCer (1 μl), CTH (2 μl), paragloboside (PG: Galβ1-4GlcNAcβ1-3Galβ1-4Glcβ1-1′Cer) (2 μl), GA1 (Galβ1-3GalNAcβ1-4Galβ1-4Glcβ1-1′Cer) (2 μl), globoside (GalNAcβ1-3Galα1-4Galβ1-4Glcβ1-1′Cer) (2 μl) were spotted on TLC plates (Polygram Sil G), developed with acetone once, and developed with CHCl3/MeOH/12 mM MgCl2 (50/40/10, by vol). Then, orcinol reagent was sprayed and the plate was heated at 110° C., whereby color reaction was developed. With regard to the neutral glycolipid fractions I to IV, TLC/virus-binding assay was carried out by the method described above.
The neutral glycolipid fraction II-2 (10 μl) obtained by the foregoing method described in (1), PI (10 μl), PG (2 μl) and globoside (1 μl) were spotted on a TLC plate (Polygram Sil G), developed with acetone once, and developed with CHCl3/MeOH/12 mM MgCl2 (50/40/10, by vol). […]
Subsequently, 2.5 ml of human anti-flavivirus antiserum diluted to 1,000-fold with Solution A was added and reacted at room temperature for 1 hour. […] Finally, the plates were reacted with 2.5 ml of a color-developing substrate solution (0.1 M citrate buffer pH 6.0 (2.5 ml), 0.11 M 4-chloro-1-naphthol in CH3CN (50 μl), 0.06 M DEPDA in CH3CN (50 μl), 30% H2O2 (5 μl)), and bound virus particles were detected. […]

CC(=O)N[C@H]1[C@H](O[C@H]2[C@@H](O)[C@@H](CO)O[C@@H](O[C@H]3[C@H](O)[C@@H](O)C(O)O[C@@H]3CO)[C@@H]2O)O[C@H](CO)[C@@H](O[C@@H]2O[C@H](CO)[C@H](O)[C@H](O)[C@H]2O)[C@@H]1O (stereo partly drawn) [paragloboside saccharide chain, Galβ1-4GlcNAcβ1-3Galβ1-4Glc]
inhibition of infection of K562 cells with dengue virus (FIG. 9) [1]: inhibited the infection of K562 cells with dengue virus depending on the concentration

NC(=O)c1ncn([C@@H]2O[C@H](CO)[C@@H](O)[C@H]2O)n1 [ribavirin]
adverse effects induced (dengue virus infection): anemia or thrombocytosis
preventive effect against dengue virus infection (dengue virus infection): did not show a preventive effect

Galβ1-3GalNAcβ1-4Galβ1-4Glcβ1-1′Cer [GA1, reference compound]
inhibition of binding of dengue virus to K562 cells (FIG. 5) ([2]; 500 μM, preincubated with virus 2,000 units/ml at 4° C. for 1 hour): could not inhibit
effect on binding of dengue virus to the cell surface (FIG. 6) ([3]; negative control, GA1 500 μM): not affected at all

Galβ1-4GlcNAcβ1-3Galβ1-4Glcβ1-1′Cer [paragloboside]
inhibition of binding of dengue virus to K562 cells (FIG. 5) ([2]; PG 100, 200 or 500 μM preincubated with virus 2,000 units/ml at 4° C. for 1 hour): inhibited depending on the concentration of PG
inhibition of the binding of dengue virus to K562 cells (FIG. 6) ([3]; paragloboside 100, 200 or 500 μM, virus 2,000 units/ml): inhibition of the binding of dengue virus to K562 cells is caused depending on the concentration of paragloboside

Galβ1-4GlcNAcβ1-3Manβ1-4Glcβ1-1Cer [Fraction 15]
binding of purified glycolipids to dengue virus on TLC plate (FIG. 8) [4]: binds to the virus very strongly

GlcNAcβ1-3Manβ1-4Glcβ1-1Cer [Fraction 13]
binding of purified glycolipids to dengue virus on TLC plate (FIG. 8) [4]: binds to the virus very strongly

From patent publication US20060104985A1, “Dengue virus infection inhibitor” (priority 2002, published 2006)
